How the values were obtained:
Conditions in all cases: 72 h
U2OS [1] = assay: cell viability relative to DMSO; higher = less toxic
Vero E6 [2] = assay: as above
Caco-2 [3] = assay: as above
HepG2 [4] = assay: as above
U2OS [5] = assay: drug sensitivity score (DSS) for viability; higher = more toxic; extreme values may be limits of the assay
Vero E6 [6] = assay: as above
Caco-2 [7] = assay: as above
HepG2 [8] = assay: as above
U2OS [9] = assay: relative viability EC50 (midpoint between 100% and the lowest measured viability); higher = less toxic
Vero E6 [10] = assay: as above
Caco-2 [11] = assay: as above
HepG2 [12] = assay: as above
Calu-3 [13] = assay: cell viability relative to DMSO; higher = less toxic
Calu-3 [14] = assay: drug sensitivity score (DSS) for viability; higher = more toxic; extreme values may be limits of the assay

| Compound | cell viability (U2OS [1]; 1 nM) [%] | cell viability (U2OS [1]; 10 nM) [%] | cell viability (U2OS [1]; 100 nM) [%] | cell viability (U2OS [1]; 1000 nM) [%] | cell viability (U2OS [1]; 10000 nM) [%] | cell viability (Vero E6 [2]; 1 nM) [%] | cell viability (Vero E6 [2]; 10 nM) [%] | cell viability (Vero E6 [2]; 100 nM) [%] | cell viability (Vero E6 [2]; 1000 nM) [%] | cell viability (Vero E6 [2]; 10000 nM) [%] | cell viability (Caco-2 [3]; 1 nM) [%] | cell viability (Caco-2 [3]; 10 nM) [%] | cell viability (Caco-2 [3]; 100 nM) [%] | cell viability (Caco-2 [3]; 1000 nM) [%] | cell viability (Caco-2 [3]; 10000 nM) [%] | cell viability (HepG2 [4]; 1 nM) [%] | cell viability (HepG2 [4]; 10 nM) [%] | cell viability (HepG2 [4]; 100 nM) [%] | cell viability (HepG2 [4]; 1000 nM) [%] | cell viability (HepG2 [4]; 10000 nM) [%] | drug sensitivity score (U2OS [5]) | drug sensitivity score (Vero E6 [6]) | drug sensitivity score (Caco-2 [7]) | drug sensitivity score (HepG2 [8]) | relative viability EC50 (U2OS [9]) [µM] | relative viability EC50 (Vero E6 [10]) [µM] | relative viability EC50 (Caco-2 [11]) [µM] | relative viability EC50 (HepG2 [12]) [µM] | cell viability (Calu-3 [13]; 1 nM) [%] | cell viability (Calu-3 [13]; 10 nM) [%] | cell viability (Calu-3 [13]; 100 nM) [%] | cell viability (Calu-3 [13]; 1000 nM) [%] | cell viability (Calu-3 [13]; 10000 nM) [%] | drug sensitivity score (Calu-3 [14]) |
| --- | --- | --- | --- | --- | --- | --- | --- | --- | --- | --- | --- | --- | --- | --- | --- | --- | --- | --- | --- | --- | --- | --- | --- | --- | --- | --- | --- | --- | --- | --- | --- | --- | --- | --- |
| CCS(=O)(=O)N1CC(CC#N)(n2cc(-c3ncnc4[nH]ccc34)cn2)C1 [baricitinib] | 95.4 | 98.5 | 95.1 | 94.4 | 96.4 | 98.6 | 100 | 102 | 102 | 101 | 95.6 | 102 | 92.9 | 97 | 99.7 | 98.6 | 106 | 91.1 | 107 | 90.3 | 0 | 0 | 0 | 0 | > 10 | > 10 | > 10 | > 10 | – | – | – | – | – | – |
| COc1cc(CNC(=O)CCCC/C=C/C(C)C)ccc1O [capsaicin] | 106 | 100 | 101 | 98.4 | 100 | 96.4 | 100 | 106 | 107 | 102 | 116 | 90.9 | 103 | 91.2 | 107 | – | – | – | – | – | 0 | 0 | 0 | – | > 10 | > 10 | > 10 | – | – | – | – | – | – | – |
| CC(=O)N[C@H](Cc1ccc2ccccc2c1)C(=O)N[C@H](Cc1ccc(Cl)cc1)C(=O)N[C@H](Cc1cccnc1)C(=O)N[C@@H](CO)C(=O)N[C@@H](Cc1ccc(O)cc1)C(=O)N[C@H](CCCNC(N)=O)C(=O)N[C@@H](CC(C)C)C(=O)N[C@@H](CCCNC(=N)N)C(=O)N1CCC[C@H]1C(=O)N[C@H](C)C(N)=O [cetrorelix] | 102 | 93.6 | 96.9 | 95.1 | 100 | 105 | 101 | 105 | 99.3 | 90.3 | 117 | 95.5 | 110 | 114 | 104 | 102 | 93.7 | 101 | 97.8 | 83.1 | 0 | 0 | 0 | 0.6 | > 10 | > 10 | > 10 | > 10 | – | – | – | – | – | – |
| O=C(O)/C=C(/CC(=O)O)C(=O)O [cis-aconitic-acid] | 98.3 | 99.1 | 101 | 96.7 | 103 | 99 | 103 | 94.9 | 97.8 | 109 | 88.4 | 97.1 | 98.6 | 90 | 93.4 | 105 | 105 | 91.6 | 113 | 98.9 | 0 | 0 | 0 | 0 | > 10 | > 10 | > 10 | > 10 | – | – | – | – | – | – |
| CC(C)NCC(O)c1ccccc1Cl (stereo not drawn) [clorprenaline] | 94 | 103 | 95.6 | 102 | 103 | 99.8 | 95 | 99.8 | 99.6 | 106 | 99.7 | 104 | 94.7 | 93.7 | 102 | 101 | 102 | 93.4 | 97.3 | 113 | 0 | 0 | 0 | 0 | > 10 | > 10 | > 10 | > 10 | – | – | – | – | – | – |
| O=C(O)[C@@H](S)[C@@H](S)C(=O)O [dimercaptosuccinic-acid] | 101 | 98.2 | 101 | 101 | 105 | 99.7 | 102 | 100 | 101 | 104 | 107 | 90.7 | 94.2 | 95.8 | 110 | – | – | – | – | – | 0 | 0 | 0 | – | > 10 | > 10 | > 10 | – | – | – | – | – | – | – |
| N=C(Nc1ccccc1)Nc1ccccc1 [diphenylguanidine] | 98.4 | 98 | 95.3 | 100 | 106 | 100 | 95.1 | 103 | 91.8 | 104 | 92.4 | 93.5 | 91.5 | 94.2 | 107 | 117 | 92.6 | 103 | 101 | 101 | 0 | 0 | 0 | 0 | > 10 | > 10 | > 10 | > 10 | – | – | – | – | – | – |
| C[C@H](Nc1ncnc2nc[nH]c12)c1cc2cccc(Cl)c2c(=O)n1-c1ccccc1 [duvelisib] | 99.4 | 92.2 | 96.1 | 88.6 | 75.5 | 105 | 101 | 94.9 | 91.8 | 76.3 | 99.8 | 95.4 | 91.7 | 84.1 | 52.5 | 91.8 | 96.5 | 97.9 | 89.5 | 65.9 | 1.7 | 1.4 | 4.1 | 3 | > 10 | > 10 | – | – | 98.6 | 102 | 101 | 88.9 | 58.6 | 3.8 |
| O=C(Nc1cccc2cccnc12)c1ccc(N2C(=O)[C@@H]3[C@H](C2=O)[C@@H]2C=C[C@H]3C2)cc1 [endo-IWR-1] | – | 105 | 103 | 98 | 93.3 | 110 | 105 | 97.6 | 78.8 | 66.7 | 96 | 94.3 | 101 | 89.2 | 94.2 | 108 | 103 | 98.5 | – | 91.7 | 0 | 3.9 | 0 | 0 | – | – | – | – | – | 108 | 98.9 | 81.8 | 74.4 | 2.9 |
| CCCCC/C=C\C/C=C\C/C=C\CCCCC(=O)O [gamma-linolenic-acid] | 106 | 106 | 98.9 | 103 | 103 | 98.2 | 103 | 97.2 | 103 | 100 | 97.9 | 103 | 102 | 116 | 94 | 107 | 115 | 94.8 | 99.2 | 107 | 0 | 0 | 0 | 0 | > 10 | > 10 | > 10 | > 10 | – | – | – | – | – | – |
| C[C@]12CCC(=O)C=C1CC[C@@H]1[C@@H]2[C@@H](O)C[C@@]2(C)[C@H]1CC[C@]2(O)C(=O)CO [hydrocortisone] | – | – | – | – | – | – | – | – | – | – | – | – | – | – | – | – | – | – | – | – | 0 | 0 | – | 2.9 | – | – | – | – | – | – | – | – | – | 0 |
| CC(C)C(N)=O [isobutyramide] | 102 | 97.6 | 101 | 98.8 | 104 | 105 | 106 | 96.2 | 98 | 105 | 95.1 | 95.6 | 97.9 | 90.2 | 98.2 | 115 | 99.1 | 90.3 | 101 | 96.8 | 0 | 0 | 0 | 0 | > 10 | > 10 | > 10 | > 10 | – | – | – | – | – | – |
| O=c1cc(-c2ccc(O)c(O)c2)oc2cc(O)cc(O)c12 [luteolin] | 99.9 | 105 | 99.9 | 105 | 79.4 | 99.5 | 105 | 94.7 | 101 | 95.3 | 92.8 | 98.1 | 95.9 | 94.5 | 79.3 | 111 | 99.4 | 117 | 97.5 | 90.8 | 0.4 | 0 | 1.1 | 0 | > 10 | > 10 | > 10 | > 10 | 105 | 123 | 107 | 106 | 70.9 | 0.9 |
| CCN(CC)CCNC(=O)c1cc(Cl)c(N)cc1OC [metoclopramide] | – | – | – | – | – | – | – | – | – | – | – | – | – | – | – | – | – | – | – | – | 0 | 0 | – | 0 | – | – | – | – | – | – | – | – | – | 0 |
| Nc1cc(N2CCCCC2)nc(N)[n+]1[O-] [minoxidil] | – | – | – | – | – | – | – | – | – | – | – | – | – | – | – | – | – | – | – | – | 0 | 0 | – | 0 | – | – | – | – | – | – | – | – | – | 0 |
| CC1(C)CCC(C)(C)c2cc(Cn3cccn3)c(/C=C/c3ccc(C(=O)O)cc3)cc21 [palovarotene] | 105 | 99.6 | 102 | 94 | 94.8 | 100 | 104 | 100 | 106 | 98.3 | 107 | 93.7 | 94.8 | 96 | 92.9 | 95.4 | 99.7 | 103 | 113 | 99.4 | 0 | 0 | 0 | 0 | > 10 | > 10 | > 10 | > 10 | – | – | – | – | – | – |
| Cc1cc(=O)n(-c2ccccc2)n1C [phenazone] | – | – | – | – | – | – | – | – | – | – | – | – | – | – | – | – | – | – | – | – | 0 | 0 | – | 0.8 | – | – | – | – | – | – | – | – | – | 0 |
| COc1cc(NS(=O)(=O)c2ccc(N)cc2)ncn1 [sulfamonomethoxine] | 101 | 99.7 | 101 | 102 | 100 | 106 | 106 | 106 | 104 | 97 | 92.6 | 102 | 95.4 | 98.4 | 98.7 | 108 | 104 | 115 | 107 | 90.9 | 0 | 0 | 0 | 0 | > 10 | > 10 | > 10 | > 10 | – | – | – | – | – | – |
| Cn1nc(-c2cccc(F)c2)n(C)c1=S [suritozole] | 98.9 | 101 | 99.7 | 103 | 96 | 102 | 101 | 99.4 | 94.5 | 98.4 | 93.6 | 97.5 | 102 | 96 | 90.1 | 108 | 99.4 | 98.2 | 106 | 97 | 0 | 0 | 0 | 0 | > 10 | > 10 | > 10 | > 10 | – | – | – | – | – | – |
| CN(C)C(=S)SC(=S)N(C)C [tetramethylthiuram-monosulfide] | – | – | – | – | – | – | – | – | – | – | – | – | – | – | – | – | – | – | – | – | 5.7 | 8.1 | – | 11.3 | – | – | – | – | – | – | – | – | – | 8.4 |
| N#C[C@@H]1CCCN1C(=O)CNC12CC3CC(CC(O)(C3)C1)C2 [vildagliptin] | – | – | – | – | – | – | – | – | – | – | – | – | – | – | – | – | – | – | – | – | – | 0 | – | 0 | – | – | – | – | – | – | – | – | – | 0 |
